The record followed here is PubChem BioAssay AID2060493 (Molecular Pharmacology Branch, DTP, NCI, 2025).

This test relates to 616215-338-R-J1-PDC tumor spheroids, viability. Description: Anticancer human tumor 616215-338-R-J1-PDC patient-derived colon adenocarcinoma cell line growth inhibition [GQUAD]. To be noted: spheroids with HUVEC and MSC; for viability, T/C: stronger effect = lower value. An excerpt: DNA G-quadruplex Stabilizer Agents in Combinations in Complex Spheroids
A high-throughput screen of multi-cell type tumor spheroids was designed to identify active combinations of DNA G-quadruplex stabilizer agents and targeted small molecules. Complex spheroids include a stromal component modeled by human endothelial cells (HUVEC) and fibroblasts modeled by human mesenchymal stem cells (MSCs). The concentration ranges selected for each drug and investigational agent were based upon clinically achievable concentrations if the clinical Cmax of the agent was known.
Compounds. The drugs and investigational agents: pidnarulex (CX-5461; NSC782164), APTO-253 (NSC789042), BRACO-19 (NSC847499), peposertib (NSC802822), ceralasertib (NSC780249), elimusertib (NSC800525), camonsertib (NSC841442), AZD-1390 (NSC803789), olaparib (NSC753686), talazoparib (NSC767125), ART-558 (NSC835418), sotorasib (NSC818433), MRTX-1133 (NSC836407), SN-38 (NSC673596), topotecan (NSC609699), etoposide (NSC141540), doxorubicin (NSC123127), gemcitabine (NSC613327), 5-fluorouracil (NSC19893), paclitaxel (NSC125973), vemurafenib (NSC761431), panobinostat (NSC761190), R-306465 (JNJ-16241199; NSC773264), adavosertib (NSC754352), TP-3654 (NSC805149), carboplatin (NSC241240), KSQ-4279 (NSC840948), and staurosporine (NSC755774) were obtained from the National Cancer Institute (NCI) Developmental Therapeutics Program Chemical Repository (34). The FDA-approved anticancer drug set is available from the NCI Developmental Therapeutics Program. […] The stock solutions were prepared in dimethyl sulfoxide (DMSO, Sigma-Aldrich, St. Louis, MO, cat. D2650) at 800-fold the tested concentration and stored at -70 degrees C prior to their use. All drugs and investigational agents were tested over a range starting from a high concentration at or near the clinical Cmax and decreasing in half-log increments. If the clinical Cmax for an agent had not been determined, the highest concentration tested was 10 microM.
2.3 Cell Culture. All cells were maintained in an incubator at 37 degrees C and 5% CO2 with 95% humidity. The PDC lines were cultured according to standard operating procedures established by the NCI PDMR. All PDCs were thawed and cultured in Matrigel-coated flasks prepared with a working solution of 1X Ham's F-12 nutrient mix, without supplementation (Invitrogen, cat. 11765054), 100 U/mL penicillin-streptomycin (Invitrogen, cat. 15140122), and 2.5% Matrigel (Corning Inc., cat. 354248) for the first three passages. The 857933-349-R-J2-PDC line was cultured in 6C/Colon 1B media, which includes advanced DMEM/F-12 (Thermo Fisher Scientific, cat. 12634028), 10 mM HEPES (Thermo Fisher Scientific, cat. 15630080), 1X GlutaMAX supplement (Thermo Fisher Scientific, cat. 35050061), 0.1 mg/mL primocin (InvivoGen, cat. ant-pm-2), 10% defined fetal bovine serum, heat inactivated (HyClone Laboratories Inc., cat. SH30070.03HI), 50% L-WRN conditioned media (ATCC, cat. CRL-3276), 1.25 mM N-Acetyl-L-cysteine (Sigma-Aldrich, cat. A9165), 10 mM nicotinamide (Sigma-Aldrich, cat. N0636), 1X B-27 supplement (Thermo Fisher Scientific, cat. 17504044), 1X N-2 supplement (Thermo Fisher Scientific, cat. 17502048), 10 microM Y-27632 dihydrochloride (Tocris Bioscience, cat. 1254), and 50 ng/mL human EGF recombinant protein (Thermo Fisher Scientific, cat. PHG0311). The 485176-168-R4-J1-PDC line was cultured in Panc media, which includes all 6C/Colon 1B media components plus 100 ng/mL human FGF-10 (Thermo Fisher Scientific, cat. 100-26), 500 nM SB-431542 (Selleckchem, cat. S1067), and gastrin (Tocris, cat. 3006).
[…]

Broadly, the viability, T/C is the result in the treated group divided by that in the control group, in per cent. Broadly, the IC50 is the concentration that gives 50% inhibition.

Each structure is given as a SMILES string. Several values for one entry are separate records, joined by “and”; a condition that tells them apart may be missing. Equal values may be shown once.
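Note: spheroids exposed to agents for 7 days before readout.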
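Throughout, for viability, T/C: percent viability relative to DMSO vehicle control wells taken as 100%.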

On to `C=CC(=O)N1CCN(c2nc(=O)n(-c3c(C)ccnc3C(C)C)c3nc(-c4c(O)cccc4F)c(F)cc23)C(C)C1` (stereo not given), for which the viability, T/C runs as follows: (compound 0.0316 µM) 104% and 97.8% and 91.6%; (compound 0.1 µM) 90.8% and 91.2% and 98.1%; (compound 0.316 µM) 90.4% and 93.1% and 102%; (compound 1 µM) 94.2% and 93.5% and 95.7%; (compound 3.16 µM) 91.2% and 93.4% and 92.8%; (compound 10 µM) 68.1% and 71.2% and 75.3%. Besides, the IC50 (curve of compound) is over 10000 nM.
With `CC(=O)O[C@H]1C(=O)[C@@]2(C)[C@H]([C@H](OC(=O)c3ccccc3)[C@]3(O)C[C@H](OC(=O)[C@H](O)[C@@H](NC(=O)c4ccccc4)c4ccccc4)C(C)=C1C3(C)C)[C@]1(OC(C)=O)CO[C@@H]1C[C@@H]2O`, the viability, T/C reads like this: (compound 0.0316 µM) 18.6% and 23.3% and 49.7%; (compound 0.1 µM) 15.1% and 16.7% and 22.2%; (compound 0.316 µM) 14.9% and 20% and 21.1%; (compound 1 µM) 18% and 14.6% and 17.4%; (compound 3.16 µM) 13.8% and 14.9% and 15.3%; (compound 10 µM) 13.3% and 15.2% and 14.8%. Besides, the 50% inhibitory concentration (IC50) (curve of compound) was under 31.6 nM.
Turning to `CC(C)n1c(=O)n(C)c2cnc3cc(F)c(-c4ccc(OCCCN5CCCCC5)nc4)cc3c21`, the viability, T/C is, setting by setting: (compound 0.0316 µM) 107% and 104% and 97.4%; (compound 0.1 µM) 99% and 102% and 91.9%; (compound 0.316 µM) 106% and 98.5% and 96.9%; (compound 1 µM) 110% and 101% and 92.8%; (compound 3.16 µM) 106% and 110% and 105%; (compound 10 µM) 53% and 94.7% and 96.5%. For the setting “curve of compound”, the concentration for half-maximal inhibition (IC50) is over 10000 nM.
As for `CC1COCCN1c1cc(-c2ccnn2C)c2ccnc(-c3ccn[nH]3)c2n1` (stereo not given), the viability, T/C is, setting by setting: (compound 0.0316 µM) 98.8% and 101% and 103%; (compound 0.1 µM) 51.8% and 57% and 69.5%; (compound 0.316 µM) 38.8% and 31.3% and 37%; (compound 1 µM) 29.2% and 23.1% and 26.1%; (compound 3.16 µM) 24.5% and 18.4% and 26.3%; (compound 10 µM) 27.6% and 18.9% and 17.4%. Besides, the half-inhibitory concentration (IC50) (curve of compound) is 126 nM and 137 nM and 203 nM.
As to `CC1COCCN1c1cc(C2(O)CC3CCC(C2)O3)c2cnn(-c3ccn[nH]3)c2n1` (stereo not given), the viability, T/C reads like this: (compound 0.0316 µM) 95.2% and 102% and 99.8%; (compound 0.1 µM) 60.7% and 60.2% and 55.6%; (compound 0.316 µM) 45.5% and 31.8% and 40.3%; (compound 1 µM) 34.9% and 39.4% and 31.6%; (compound 3.16 µM) 21.1% and 23.5% and 21.3%; (compound 10 µM) 23.2% and 16.9% and 12.9%. Also, the IC50 (curve of compound) was 217 nM and 171 nM and 175 nM.
Take `CC1COCCN1c1cc(C2(S(C)(=N)=O)CC2)nc(-c2ccnc3[nH]ccc23)n1` (stereo not given): the viability, T/C runs as follows: (compound 0.0316 µM) 112% and 99% and 92.8%; (compound 0.1 µM) 102% and 101% and 90.8%; (compound 0.316 µM) 122% and 95% and 90%; (compound 1 µM) 94.4% and 94.6% and 92.2%; (compound 3.16 µM) 72.2% and 51.3% and 62.8%; (compound 10 µM) 36% and 28.3% and 34.5%. Besides, the IC50 (curve of compound) is 6340 nM and 3380 nM and 5330 nM.
Consider `CC[C@@]1(O)C(=O)OCc2c1cc1n(c2=O)Cc2cc3c(CN(C)C)c(O)ccc3nc2-1`, for which the viability, T/C was 106% and 109% and 103% (compound 0.000999 µM); 93.6% and 97% and 92.9% (compound 0.00316 µM); 92.7% and 99.7% and 101% (compound 0.00999 µM); 92.8% and 96.2% and 101% (compound 0.0316 µM); 97.8% and 89% and 91.2% (compound 0.0999 µM); 50.1% and 44.3% and 47.5% (compound 0.316 µM). The IC50 (curve of compound) was > 316 nM and 273 nM and 297 nM.
Take `CCc1c2c(nc3ccc(O)cc13)-c1cc3c(c(=O)n1C2)COC(=O)[C@]3(O)CC`: the viability, T/C was 93.6% and 102% (2×) (compound 0.000999 µM); 75.4% and 93.8% and 87.9% (compound 0.00316 µM); 63.3% and 61.1% and 66.4% (compound 0.00999 µM); 24.8% and 30.3% and 29.4% (compound 0.0316 µM); 22% and 16.5% and 16.2% (compound 0.0999 µM); 14.9% and 9.21% and 12.4% (compound 0.316 µM). For the same molecule, under “curve of compound”, the half-maximal inhibitory concentration (IC50) is 13.9 nM and 15.6 nM and 16.3 nM.
As for `CN(C)c1ccc(Nc2c3ccc(NC(=O)CCN4CCCC4)cc3nc3cc(NC(=O)CCN4CCCC4)ccc23)cc1`, the viability, T/C reads like this: (compound 0.0316 µM) 105% [middle of 12 runs]; (compound 0.1 µM) 104% [middle of 12 runs]; (compound 0.316 µM) 102% [middle of 12 runs]; (compound 1 µM) 100% [middle of 12 runs]; (compound 3.16 µM) 99.6% [middle of 12 runs]; (compound 10 µM) 93.9% [middle of 12 runs]. For the setting “compound alone, run of 04/22/2024”, the concentration for half-maximal inhibition (IC50) is over 10000 nM.
For `COc1cc(C2c3cc4c(cc3C(OC3OC5COC(C)OC5C(O)C3O)C3COC(=O)C23)OCO4)cc(OC)c1O` (stereo not given), the viability, T/C (compound 0.0316 µM) was 106% and 97.9% and 101%; the viability, T/C (compound 0.1 µM) was 93% and 95.6% and 92.9%; the viability, T/C (compound 0.316 µM) is 72.8% (2×) and 63.2%; the viability, T/C (compound 1 µM) was 41.4% and 57.3% and 43.4%; the viability, T/C (compound 3.16 µM) is 29.8% and 39.9% and 37.9%; the viability, T/C (compound 10 µM) was 24.3% and 21.6% and 20%. The IC50 (curve of compound) was 749 nM and 1560 nM and 781 nM.
